Reference: US6258790A, “Antisense modulation of integrin α4 expression” (Isis Pharmaceuticals, Inc., priority 1999, dated 2001)

Legend:
[1] = system: leukocyte trafficking into the central nervous system of EAE mice; assay: Reduction of leukocyte trafficking into the central nervous system of EAE mice (immunostaining of sections); format: in vivo, mouse (CSJLF1); conditions: EAE experiment 4
Description: The pieces were embedded in O.C.T. tissue freezing medium (Ted Pella Inc., Redding, Calif.) on dry ice and methylbutane. Four-micron frozen sections were cut and air dried overnight. The sections were fixed for three minutes in ice-cold acetone and then placed on a Dako Autostainer (Dako Corporation, Carpinteria, Calif.) and treated in the following steps: 5 minutes in 0.03% H2 O2, 5 minutes in 5% donkey serum diluted in PBS, 45 minutes in appropriately diluted primary antibody, 30 minutes in horseradish peroxidase-labeled donkey anti-rat secondary antibody (Jackson Laboratory, Bar Harbor, Me.). Sections were rinsed between treatments with PBS. All the antibodies used were rat anti-mouse from PharMingen (San Diego, Calif.), except BM-8, which was from Bachem Bioscience Inc. (King of Prussia, Pa.). The immunostaining was developed with DAB (Dako Corporation) and counterstained with hematoxylin.

[2] = system: Mouse experimental autoimmune encephalomyelitis (EAE); assay: Mouse experimental autoimmune encephalomyelitis (EAE) model for multiple sclerosis; format: in vivo, mouse (CSJLF-1); conditions: scrambled control; for Peak Severity: score 0 to 5
[3] = system: human integrin α4; assay: Integrin α4 protein expression in A375 cells after electroporation of oligonucleotide (flow cytometry); format: cell-based
Description: A375 cells were treated with ISIS 107245, 107248, 107252, 107255 and 107259 by electroporation at 175 volts, r=1, c=1000, 0.2 ml Opti-MEM, 1×10^6 cells /ml, 2 mm gap electrode using a BTX Electro Cell Manipulator 600 (Genetronics, San Diego Calif.). Oligonucleotide concentrations were 1, 3, 10 and 30 μM. Cells were harvested 24 hours after oligonucleotide treatment and strained with 2 ug/ml CD49d-FITC for flow cytometry as in the previous examples.
ISIS 107248 was compared directly to ISIS 27104 for ability to inhibit integrin α4 expression in A375 melanoma cells. Oligonucleotides were electroporated into cells as in the previous example.

[4] = system: human integrin α4; assay: Inhibition of human integrin α4 protein levels by antisense oligonucleotides (LIPOFECTIN, flow cytometry with CD49d-FITC) in A375 melanoma cells; format: cell-based; set-up: % Inhib.: tested at 200 nM
[5] = system: C8161 human melanoma cells; assay: Experimental metastasis assay, C8161 cells injected into athymic nude mice; format: in vivo, human melanoma cells in athymic nude mice
Description: To evaluate the role of integrin α4 in metastasis, experimental metastasis assays are performed by injecting 1×10^5 C8161 cells into the lateral tail vein of athymic nude mice. C8161 is a human melanoma cell line. […] Four-week-old female athymic nude mice (Harlan Sprague Dawley) are used. Animals are maintained under the guidelines of the NIH. Groups of 4-8 mice each are tested in experimental metastasis assays.
Treatment of C8161 cells with antisense oligonucleotide ISIS 27104, complementary to human integrin α4, is performed in the presence of the cationic lipid, LIPOFECTIN (Gibco/BRL, Gaithersburg, Md.). Cells are seeded in 60 mm tissue culture dishes at 10^6 cells/ml and incubated at 37° C. for 3 days, washed with Opti-MEM (Gibco/BRL) 3 times and 100 μl of Opti-MEM medium is added to each well. 0.5 μM oligonucleotide and 15 μg/ml LIPOFECTIN are mixed at room temperature for 15 minutes. 25 μl of the oligonucleotide-LIPOFECTIN mixture is added to the appropriate dishes and incubated at 37° C. for 4 hours. […] After 4 hours, 500 U/ml TNF-α is added to the appropriate wells and incubated for 18 hours at which time cells are removed from the plates, counted and injected into athymic nude mice. […]
After 4 weeks, mice are sacrificed, organs are fixed in Bouin's fixative and metastatic lesions on lungs are scored with the aid of a dissecting microscope.

[6] = system: Mouse collagen-induced arthritis (CIA); assay: Mouse collagen-induced arthritis (CIA) model for rheumatoid arthritis; format: in vivo, mouse (DBA/1LacJ); conditions: Table 22; positive control, 5 mg/kg daily IP
Source text: A model for human rheumatoid arthritis has been developed wherein mice are immunized with bovine type II collagen. Anderson et al., J. Immunol. 1991 147, 1189-1193, citing Trentham et al., J. Exp. Med 1977, 146, 857. Swelling and inflammation of the joints follows in approximately 3 weeks, with joint distortion and ankylosis typical of rheumatoid arthritis. This model has been used to study the effects of the antisense oligonucleotide 17044, targeted to mouse integrin α4, on arthritis in mice.
DBA/1LacJ mice were obtained from Jackson Laboratory, Bar Harbor, Me. Female mice aged 6 to 8 weeks were used and assigned to groups, ten mice per group. On day 0 mice were immunized at the base of the tail with 100 ug of bovine type II collagen which was emulsified in Complete Freund's Adjuvant (CFA). On day 7, a second booster dose of collagen was administered by the same route. On day 14 the mice were injected subcutaneously with 100 ug of lipopolysaccharide (LPS). Weights were recorded weekly. Mice were inspected daily for the onset of CIA, which is characterized by erythema and edema. Upon the onset of the disease, paw widths and rear ankle widths of affected and unaffected joints were measured three times a week using a constant tension caliper. In addition, limbs were clinically evaluated and graded 0-4, where 0=normal; 1=one digit swollen; 2=inflammation present in more than one digit; 3=joint distortion with or without inflammation; and 4=ankylosis, detected by joint manipulation. The progression of all measurements was recorded to day 50. At the end of the observation period for each mouse, all paws were removed and examined histologically.
The oligonucleotide, the positive control drug (cyclophosphamide, 5 mg/kg), and the vehicle were administered daily to each mouse intraperitoneally (IP) starting on day -3 and continuing for the duration of the study. Each animal received 10 mg/kg as a bolus daily dose.
In a preliminary study, a single 10 mg/kg daily dose of […] was administered from the time of disease induction to the conclusion of the study 50 days later. Arthritis incidence was reduced from 70 to 30% in the ISIS 17044-treated group.

[7] = system: leukocyte migration; conditions: 3 mg/kg oral; 24 hours after implantation; cited from earlier work
[8] = system: dextran sulfate-mediated colitis in mice; conditions: cited from earlier work
[9] = Table 24, A375 cells, lipofectin, as Example 8

## 17614 (GCCGACACCCGTTCGTTCGG; phosphorothioate, 2'-MOE/deoxy, further chemistry not given here) [compound 17614]
[1]
  reduction of cellular influx, scrambled control: not effective in reducing cellular influx
[2]; EAE Experiment 3, 1 mg/kg
  Days to Onset: 16.86 days
  Disease Incidence: 7/7
  Peak Severity: 2.14
[2]; EAE Experiment 4, 2 mg/kg SC
  Days to Onset: 14.14 days
  Disease Incidence: 7/7
  Peak Severity: 1.86
[2]; EAE Experiment 5, 2 mg/kg SC
  Days to Onset: 9 days
  Disease Incidence: 6/7
  Peak Severity: 1.71

## 27104 (CCCAAGCCATGCGCTCTCGG; phosphorothioate, 2'-MOE, 5-methyl-C, further chemistry not given here) [compound 27104]
[3]; Table 25, 1 nM as printed, 24 hours
  % Control: 86.2%
[3]; Table 25, 10 nM, 24 hours
  % Control: 63.2%
[3]; Table 25, 30 nM, 24 hours
  % Control: 35.3%
[3]; Table 26, 1 μM
  % Control: 86.2%
  % Inhib.: 13.8%
[3]; Table 26, 3 μM
  % Control: 63.2%
  % Inhib.: 36.8%
[3]; Table 26, 10 μM
  % Control: 35.3%
  % Inhib.: 64.7%
[3]; Table 26, 30 μM
  % Control: 27.1%
  % Inhib.: 72.9%
[4]; Example 10 assay, dose not stated
  inhibition (Example 10): ≥ 40%
[4]; Example 11 assay, dose not stated
  inhibition (Example 11): ≥ 40%
[4]; Table 4, 10 nM
  % Control: 69%
  % Inhib.: 31%
[4]; Table 4, 30 nM
  % Control: 64%
  % Inhib.: 36%
[4]; Table 4, 100 nM
  % Control: 49%
  % Inhib.: 51%
[4]; Table 4, 300 nM
  % Control: 39%
[4]; Table 4, 300 nM (highest dose)
  % Inhib.: 61%
[4]; Table 6, 10 nM
  % Control: 84%
  % Inhib.: 16%
[4]; Table 6, 30 nM
  % Control: 82%
  % Inhib.: 18%
[4]; Table 6, 100 nM
  % Control: 59%
  % Inhib.: 41%
[4]; Table 6, 300 nM
  % Control: 37%
[4]; Table 6, 300 nM (highest dose)
  % Inhib.: 63%
[4]; [9]
  % Control: 69%
  % Inhib.: 31%
[5]; TNF-α treated cells
  enhanced metastatic ability of C8161 from TNF-α treatment: eliminates the enhanced metastatic ability
[5]; cells treated with oligonucleotide before injection
  metastatic potential of C8161 cells: decreases the metastatic potential

## O=P1(N(CCCl)CCCl)NCCCO1 (centres unmarked) [Cyclophosphamide, cyclophosphamide, reference compound]
[6]
  # Paws/Mouse (mean number of affected paws at termination): 0 ± 0
  Severity (total clinical score/total number of mice in group): 0 ± 0

## COc1ccc2c(c1)c(CC(=O)O)c(C)n2C(=O)c1ccc(Cl)cc1 [Indomethacin]
[7]
  reduction in mean leukocyte count compared to vehicle control: 75-80%

## TGF-β
[8]
  dextran sulfate-mediated colitis: protect against dextran sulfate-mediated colitis in mice
